The source of these data is ChEMBL document CHEMBL2074066, “Fluorescent substrates of sister-P-glycoprotein (BSEP) evaluated as markers of active transport and inhibition: evidence for contingent unequal binding sites” (Pharm Res, 2003).

Each structure is given as a SMILES string.

Holding throughout (type): functional, cell-based
The target in data set [1] is T1, Bile salt export pump (Homo sapiens, UniProt O95342). Put plainly: TP_TRANSPORTER: inhibitory effect of typical BSEP inhibitors (Verapamil & Cyclosporin A) in SK-E2 cells (expressing BSEP).
T1 sequence (O95342 whole entry): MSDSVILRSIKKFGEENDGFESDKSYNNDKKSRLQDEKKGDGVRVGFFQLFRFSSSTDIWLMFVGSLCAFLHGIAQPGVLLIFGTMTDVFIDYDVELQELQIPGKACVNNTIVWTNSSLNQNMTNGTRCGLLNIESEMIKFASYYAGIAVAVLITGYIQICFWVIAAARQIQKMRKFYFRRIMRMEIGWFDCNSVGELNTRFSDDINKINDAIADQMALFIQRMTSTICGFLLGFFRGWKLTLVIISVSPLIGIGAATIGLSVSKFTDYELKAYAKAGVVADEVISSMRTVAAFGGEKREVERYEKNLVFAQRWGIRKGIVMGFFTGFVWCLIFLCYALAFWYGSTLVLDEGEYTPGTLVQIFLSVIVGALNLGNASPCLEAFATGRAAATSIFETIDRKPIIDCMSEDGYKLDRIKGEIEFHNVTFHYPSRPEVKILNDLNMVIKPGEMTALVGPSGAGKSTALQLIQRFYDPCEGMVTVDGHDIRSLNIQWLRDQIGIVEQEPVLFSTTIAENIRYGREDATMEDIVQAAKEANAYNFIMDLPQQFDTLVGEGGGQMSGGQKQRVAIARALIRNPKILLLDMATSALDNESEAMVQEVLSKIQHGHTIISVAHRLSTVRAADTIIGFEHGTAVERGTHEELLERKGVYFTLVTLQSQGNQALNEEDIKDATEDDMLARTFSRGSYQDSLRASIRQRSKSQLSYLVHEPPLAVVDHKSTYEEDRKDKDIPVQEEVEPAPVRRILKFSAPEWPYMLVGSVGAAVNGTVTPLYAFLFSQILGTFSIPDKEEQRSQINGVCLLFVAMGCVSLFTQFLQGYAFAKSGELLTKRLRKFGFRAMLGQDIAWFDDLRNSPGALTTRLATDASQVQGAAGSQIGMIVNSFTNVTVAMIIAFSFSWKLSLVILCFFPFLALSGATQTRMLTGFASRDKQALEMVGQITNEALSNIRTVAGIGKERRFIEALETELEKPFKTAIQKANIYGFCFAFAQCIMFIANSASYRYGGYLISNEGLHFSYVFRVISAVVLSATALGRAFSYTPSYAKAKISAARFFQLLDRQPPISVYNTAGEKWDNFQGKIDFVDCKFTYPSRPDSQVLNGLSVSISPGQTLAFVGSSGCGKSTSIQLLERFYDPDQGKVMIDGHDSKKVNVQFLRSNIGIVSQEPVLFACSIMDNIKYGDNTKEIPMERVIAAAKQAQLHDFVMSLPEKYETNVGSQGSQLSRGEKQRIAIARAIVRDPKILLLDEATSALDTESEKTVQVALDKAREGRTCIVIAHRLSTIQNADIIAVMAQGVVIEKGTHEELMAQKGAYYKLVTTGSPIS
For data set [2], the target named is T1, Bile salt export pump. Nature of the data set: TP_TRANSPORTER: increase in bodipy intracellular accumulation (Bodipy: 0.2 uM) in SK-E2 cells (expressing BSEP). To be noted: for Activity: human, sk-e2.
Data set [3] deals with T1, Bile salt export pump. Nature of the data set: TP_TRANSPORTER: increase in dihydrofluorescein intracellular accumulation (dihydrofluorescein: 1 uM) in SK-E2 cells (expressing BSEP). To be noted: for Activity: sk-e2.

Regarding `CCN1C(=C/C=C/c2n(CC)c3cc(Cl)c(Cl)cc3[n+]2CC)N(CC)c2cc(Cl)c(Cl)cc21.[I-]`, in data set [1], the Activity entry was “is not a substrate [-]”.
For the compound `CC(=O)OCOC(=O)CN(CC(=O)OCOC(C)=O)Cc1c(OC(C)=O)ccc2c1Oc1c(ccc(OC(C)=O)c1CN(CC(=O)OCOC(C)=O)CC(=O)OCOC(C)=O)C21OC(=O)c2ccccc21`, the Activity result in data set [1] is “is not a substrate [-]”.
The same measure, in the same setting: under `CC(=O)OCOC(=O)CN(CC(=O)OCOC(C)=O)c1ccc(C)cc1OCCOc1cc(-c2c3cc(Cl)c(=O)cc-3oc3cc(OCOC(C)=O)c(Cl)cc23)ccc1N(CC(=O)OCOC(C)=O)CC(=O)OCOC(C)=O` stands “is not a substrate [-]”; under `CC[n+]1cc(N(C)C)cc2ccc(/C=C/C=C/c3ccc(N(C)C)cc3)cc21`, “is not a substrate [-]”.
Still for that read-out and setting: next, `CN(CCOC(=O)CI)c1ccc([N+](=O)[O-])c2nonc12`: “is not a substrate [-]”.
On to `CC(=O)Oc1cc2c(cc1Cl)C(c1c(C(=O)O)cccc1C(=O)O)c1cc(Cl)c(OC(C)=O)cc1O2.CC(=O)Oc1cc2c(cc1Cl)C(c1cc(C(=O)O)ccc1C(=O)O)c1cc(Cl)c(OC(C)=O)cc1O2`, for which the Activity entry in data set [1] is “is not a substrate [-]”.
As for `CCOc1ccc(-c2nc3cc(-c4nc5cc(N6CCN(C)CC6)ccc5[nH]4)ccc3[nH]2)cc1`, in data set [1], the Activity entry is “is not a substrate [-]”.
On to `O=C(CI)Nc1ccc(-c2c3ccc(=O)cc-3oc3cc(O)ccc23)c(C(=O)O)c1` [5-Iodoacetamidofluorescein], for which the Activity entry in data set [1] is “is not a substrate [-]”.
Regarding `CN(C)CCCN1c2ccccc2Sc2ccc(Cl)cc21` [CHLORPROMAZINE], the IC50 in data set [2] was determined as 30.9 µM; in data set [3], 33.5 µM.
In the case of `Cc1cc(C)n2c1C=C1C=CC(CCCCCCCCCCCC(=O)OC3CC[C@@]4(C)C(=CC[C@@H]5[C@@H]4CC[C@]4(C)C(C(C)CCCC(C)C)CC[C@@H]54)C3)=[N+]1[B-]2(F)F` (some centres undefined) [CHOLESTERYL BODIPY FL C12], the Activity result in data set [1] is “is not a substrate [-]”.
Take `CN/C(=N/CCSCc1nc[nH]c1C)NC#N` [CIMETIDINE]: the Activity entry in data set [2] and in data set [3] was “is not an inhibitor [-]” throughout.
As for `CC(C)/N=c1\cc2n(-c3ccc(Cl)cc3)c3ccccc3nc-2cc1Nc1ccc(Cl)cc1` [CLOFAZIMINE], in data set [3], the half-maximal inhibitory concentration (IC50) came to 28.7 µM.
As to `COc1cccc2c1C(=O)c1c(O)c3c(c(O)c1C2=O)C[C@@](O)(C(C)=O)C[C@@H]3O[C@H]1C[C@H](N)[C@H](O)[C@H](C)O1` [DAUNORUBICIN], the Activity result in data set [1] is “is not a substrate [-]”.
As for `COc1cccc2c1C(=O)c1c(O)c3c(c(O)c1C2=O)C[C@@](O)(C(=O)CO)C[C@@H]3O[C@H]1C[C@H](N)[C@H](O)[C@H](C)O1` [DOXORUBICIN], the Activity result in data set [1] is “is not a substrate [-]”.
Turning to `O=C(O[C@@H]1Cc2c(O)cc(O)cc2O[C@@H]1c1cc(O)c(O)c(O)c1)c1cc(O)c(O)c(O)c1` [EPIGALOCATECHIN GALLATE], in data set [2], the IC50 came to 214 µM. The Activity result in data set [3] is “is not an inhibitor [-]”.
For the compound `O=C1OC2(c3ccc(O)cc3Oc3cc(O)ccc32)c2ccccc21` [FLUORESCEIN], the Activity result in data set [1] was “substrate [+]”.
Still for that read-out and setting: next, `O=C(O)c1ccccc1C1c2ccc(O)cc2Oc2cc(O)ccc21` [FLUORESCIN]: “substrate [+]”.
Turning to `C=C[C@H]1C[N@@]2CC[C@H]1C[C@@H]2[C@@H](O)c1ccnc2ccc(OC)cc12` [QUINIDINE], in data set [3], the Activity result is “is not an inhibitor [-]”.
For the compound `COC(=O)[C@H]1[C@H]2C[C@@H]3c4[nH]c5cc(OC)ccc5c4CCN3C[C@H]2C[C@@H](OC(=O)c2cc(OC)c(OC)c(OC)c2)[C@@H]1OC` [RESERPINE], the Activity entry in data set [2] was “is not an inhibitor [-]”. In addition, the IC50 in data set [3] stood at 10.2 µM.
Consider `COC(=O)c1ccccc1-c1c2ccc(=N)cc-2oc2cc(N)ccc12.Cl` [RHODAMINE123], for which the Activity entry in data set [1] was “is not a substrate [-]”.
`CO[C@H]1/C=C/O[C@@]2(C)Oc3c(C)c(O)c4c(O)c(cc(O)c4c3C2=O)NC(=O)/C(C)=C\C=C\[C@H](C)[C@H](O)[C@@H](C)[C@@H](O)[C@@H](C)[C@H](OC(C)=O)[C@@H]1C` [RIFAMYCIN]: the values for the half-inhibitory concentration (IC50) in data set [2] and in data set [3] were 206 µM and 12.2 µM, respectively.
As to `C[C@H](CCC(=O)NCCS(=O)(=O)O)[C@H]1CC[C@H]2[C@@H]3CC[C@@H]4C[C@H](O)CC[C@]4(C)[C@H]3CC[C@]12C` [TAUROLITHOCHOLIC ACID], the Activity result in data set [2] is “is not an inhibitor [-]”. Further, the IC50 in data set [3] is 189 µM.
In the case of `CN(C)c1ccc2c(-c3ccc(CCl)cc3)c3ccc(=[N+](C)C)cc-3oc2c1.[Br-]` [TETRAMETHYLROSAMINE], the Activity entry in data set [1] is “is not a substrate [-]”.
On to `Cc1c(C)c2c(c(C)c1O)CCC(C)(COc1ccc(CC3SC(=O)NC3=O)cc1)O2` (centres undefined) [TROGLITAZONE], for which the IC50 in data set [3] turned out to be 66.4 µM.
For `CC(C)[C@@H]1NC(=O)[C@H](C)OC(=O)[C@@H](C(C)C)NC(=O)[C@@H](C(C)C)OC(=O)[C@H](C(C)C)NC(=O)[C@H](C)OC(=O)[C@@H](C(C)C)NC(=O)[C@@H](C(C)C)OC(=O)[C@H](C(C)C)NC(=O)[C@H](C)OC(=O)[C@@H](C(C)C)NC(=O)[C@@H](C(C)C)OC1=O` [VALINOMYCIN], the Activity entry in data set [2] is “is not an inhibitor [-]”. Besides, the half-maximal inhibitory concentration (IC50) in data set [3] was found to be 7.2 µM.
`CC[C@]1(O)C[C@@H]2CN(CCc3c([nH]c4ccccc34)[C@@](C(=O)OC)(c3cc4c(cc3OC)N(C)[C@H]3[C@@](O)(C(=O)OC)[C@H](OC(C)=O)[C@]5(CC)C=CCN6CC[C@]43[C@@H]65)C2)C1` [VINBLASTINE]: the concentration for half-maximal inhibition (IC50) in data set [2] came out at 115 µM; in data set [3], 62 µM.

One may read the IC50 as the concentration at which inhibition is half-maximal.
